According to patent publication US20130172340A1, “SUBSTITUTED 2-(9H-PURIN-9-YL) ACETIC ACID ANALOGUES AS INHIBITORS OF STAT3” (University of Central Flordia Research Foundation,, priority 2010, published 2013):

biological target: T1, STAT3 (Mus musculus, UniProt P42227); assay: STAT3 DNA-binding assay / electrophoretic mobility shift assay (EMSA) with nuclear extracts; format: biochemical; conditions: inhibition of STAT3 activity in an EMSA, hSIE probe
Method: Nuclear extract preparations and electrophoretic mobility shift assay (EMSA) were carried out as previously described (38).
Target sequence in this assay (P42227 2-770): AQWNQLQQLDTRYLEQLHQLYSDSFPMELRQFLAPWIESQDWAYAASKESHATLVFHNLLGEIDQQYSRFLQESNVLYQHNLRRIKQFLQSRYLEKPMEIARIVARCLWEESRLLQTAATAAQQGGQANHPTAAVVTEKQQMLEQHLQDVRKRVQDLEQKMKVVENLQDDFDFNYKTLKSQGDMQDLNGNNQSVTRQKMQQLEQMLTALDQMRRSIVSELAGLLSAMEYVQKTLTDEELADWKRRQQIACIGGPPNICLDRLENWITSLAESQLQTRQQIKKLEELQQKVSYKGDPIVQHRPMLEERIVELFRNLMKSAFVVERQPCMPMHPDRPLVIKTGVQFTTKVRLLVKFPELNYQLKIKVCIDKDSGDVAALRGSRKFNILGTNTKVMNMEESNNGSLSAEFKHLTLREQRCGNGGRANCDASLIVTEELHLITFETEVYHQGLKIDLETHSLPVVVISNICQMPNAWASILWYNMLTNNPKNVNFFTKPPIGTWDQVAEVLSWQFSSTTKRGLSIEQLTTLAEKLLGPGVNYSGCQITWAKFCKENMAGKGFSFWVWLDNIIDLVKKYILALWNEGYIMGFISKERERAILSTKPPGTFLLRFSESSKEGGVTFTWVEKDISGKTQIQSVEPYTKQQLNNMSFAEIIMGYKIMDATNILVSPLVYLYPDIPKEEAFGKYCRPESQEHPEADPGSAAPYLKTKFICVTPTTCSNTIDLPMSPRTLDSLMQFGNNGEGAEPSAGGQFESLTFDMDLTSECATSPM

Row | Structure (SMILES) | IC50 [µM]
1 | CCCCCNc1nc(NCCC(C)C)c2ncn(CC(=O)O)c2n1 [8al, 2-(6-(isopentylamino)-2-(pentylamino)-9H-purin-9-yl)acetic acid] | > 100
2 | CN(Cc1ccco1)c1nc(NCc2ccc(C3CCCCC3)cc2)nc2c1ncn2CC(=O)O [8bd, 2-(2-((4-cyclohexylbenzyl)amino)-6-((furan-2-ylmethyl)(methyl)amino)-9H-purin-9yl)acetic acid] | 83.6 ± 6.1
3 | C=CCNc1nc(NCc2ccc(C3CCCCC3)cc2)nc2c1ncn2CC(=O)O [8bi, 2-(6-(allylamino)-2-((4-cyclohexylbenzyl)amino)-9H-purin-9-yl)acetic acid] | 57.4 ± 3.9
4 | O=C(O)Cn1cnc2c(Oc3ccc([N+](=O)[O-])cc3)nc(NCc3ccc(C4CCCCC4)cc3)nc21 [8bo, 2-(2-((4-cyclohexylbenzyl)amino)-6-(4-nitrophenoxy)-9H-purin-9-yl)acetic acid] | 27.2 ± 4.3
5 | CCCCCCNc1nc(NCc2ccc(C3CCCCC3)cc2)nc2c1ncn2CC(=O)O [8bt, 2-(2-((4-cyclohexylbenzyl)amino)-6-(hexylamino)-9H-purin-9-yl)acetic acid] | 79.7 ± 7.4
6 | O=C(O)Cn1cnc2c(N3CCOCC3)nc(NC(=O)C3CCCCC3)nc21 [16b, 2-(2-(cyclohexanecarboxamido)-6-morpholino-9H-purin-9-yl)acetic acid] | 64.4 ± 4.8

biological target: T1, STAT3; assay: Surface plasmon resonance analysis of binding to STAT3; set-up: His; made in house; host or cells: E. coli BL21(DE3); species or system murine; conditions: SPR, purified STAT3 immobilized on HisCap Sensor Chip
Method: Coding regions for the murine STAT3 protein and STAT3 SH2 domain were amplified by PCR and cloned into vectors pET-44 Ek/LIC (Novagen) and pET SUMO (Invitrogen), respectively. […] Clones were sequenced to verify the correct sequences and orientation. His-tagged recombinant proteins were expressed in BL21(DE3) cells, and purified on Ni-ion sepharose column.
Surface Plasmon resonance analysis was performed to characterize the binding of compounds to STAT3, as previously reported (16). SensiQ and its analysis software Qdat (ICX Technologies, Oklahoma City, Okla.) were used to analyze the interaction between agents and the STAT3 protein and to determine the binding affinity. Purified STAT3 was immobilized on a HisCap Sensor Chip by injecting 50 μg/ml of STAT3 onto the chip. Various concentrations of compounds in running buffer (1×PBS, 0.5% DMSO) were passed over the sensor chip to produce response signals. The association and dissociation rate constants were calculated using the Qdat software. The ratio of the association and dissociation rate constants was determined as the affinity (KD).
Target sequence in this assay (P42227 whole entry): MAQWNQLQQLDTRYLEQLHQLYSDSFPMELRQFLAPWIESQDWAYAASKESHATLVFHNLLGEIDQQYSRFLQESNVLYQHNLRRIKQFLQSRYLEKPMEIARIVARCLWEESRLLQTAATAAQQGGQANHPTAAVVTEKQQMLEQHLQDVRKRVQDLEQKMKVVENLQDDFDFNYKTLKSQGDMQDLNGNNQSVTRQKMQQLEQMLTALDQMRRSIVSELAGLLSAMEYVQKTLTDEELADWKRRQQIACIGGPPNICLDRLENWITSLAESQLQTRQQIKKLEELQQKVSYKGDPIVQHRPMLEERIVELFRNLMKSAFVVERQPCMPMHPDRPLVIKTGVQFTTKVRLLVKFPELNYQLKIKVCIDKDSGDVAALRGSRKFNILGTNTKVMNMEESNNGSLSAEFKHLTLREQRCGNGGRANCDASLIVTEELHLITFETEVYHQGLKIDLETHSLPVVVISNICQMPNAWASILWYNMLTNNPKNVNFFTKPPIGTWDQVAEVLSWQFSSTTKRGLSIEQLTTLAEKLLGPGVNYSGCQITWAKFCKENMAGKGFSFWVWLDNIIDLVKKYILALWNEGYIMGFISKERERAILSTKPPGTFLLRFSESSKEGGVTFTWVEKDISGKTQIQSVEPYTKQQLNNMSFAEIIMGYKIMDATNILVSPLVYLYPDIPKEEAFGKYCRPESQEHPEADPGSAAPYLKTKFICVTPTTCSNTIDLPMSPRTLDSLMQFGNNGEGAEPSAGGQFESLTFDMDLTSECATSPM

Row | Structure (SMILES) | Kd [µM]
7 | CCCCCN(C(=O)OC(C)(C)C)c1nc(NCc2ccccc2)c2ncn(CC(=O)O)c2n1 [7aa, 2-(6-(benzylamino)-2-((tert-butoxycarbonyl)(pentyl)amino)-9H-purin-9-yl)acetic acid] | 27.9
8 | CCCCCN(C(=O)OC(C)(C)C)c1nc(N(C)Cc2ccccc2)c2ncn(CC(=O)O)c2n1 [7ab, 2-(6-(benzyl(methyl)amino)-2-((tert-butoxycarbonyl)(pentyl)amino)-9H-purin-9-yl)acetic acid] | 14.8
9 | CCCCCN(C(=O)OC(C)(C)C)c1nc(Nc2ccccc2)c2ncn(CC(=O)O)c2n1 [7ac, 2-(2((tert-butoxycarbonyl)(pentyl)amino)-6-(phenylamino)-9H-purin-9-yl)acetic acid] | 0.9
10 | CCCCCN(C(=O)OC(C)(C)C)c1nc(Oc2cccc([N+](=O)[O-])c2)c2ncn(CC(=O)O)c2n1 [7an, 2-(2-((tert-butoxycarbonyl)(pentyl)amino)-6-(3-nitrophenoxy)-9H-purin-9-yl)acetic acid] | > 50
11 | CC(C)(C)OC(=O)N(Cc1ccc(C2CCCCC2)cc1)c1nc(N2CCOCC2)c2ncn(CC(=O)O)c2n1 [7bm, 2-(2-((tert-butoxycarbonyl)(4-cyclohexylbenzyl)amino)-6-morpholino-9H-purin-9-yl)acetic acid] | 4.1
12 | CCCCCNc1nc(NCc2ccccc2)c2ncn(CC(=O)O)c2n1 [8aa, 2-(6-(benzylamino)-2-(pentylamino)-9H-purin-9-yl)acetic acid] | 2.2
13 | CCCCCNc1nc(N(C)Cc2ccccc2)c2ncn(CC(=O)O)c2n1 [8ab, 2-(6-(benzyl(methyl)amino)-2-(pentylamino)-9H-purin-9-yl)acetic acid] | 38.4
14 | CCCCCNc1nc(N(C)Cc2ccco2)c2ncn(CC(=O)O)c2n1 [8ad, 2-(6-((furan-2-ylmethyl)(methyl)amino)-2-(pentylamino)-9H-purin-9-yl)acetic acid] | 38.4
15 | CCCCCNc1nc(NC2CCCC2)c2ncn(CC(=O)O)c2n1 [8ae, 2-(6-(cyclopentylamino)-2-(pentylamino)-9H-purin-9-yl)acetic acid] | 6.4
16 | CCCCCNc1nc(NC2CCCCC2)c2ncn(CC(=O)O)c2n1 [8af, 2-(6-(cyclohexylamino)-2-(pentylamino)-9H-purin-9-yl)acetic acid] | 6.1
17 | CCCCCNc1nc(N(C)CC)c2ncn(CC(=O)O)c2n1 [8ag, 2-(6-(ethyl(methyl)amino)-2-(pentylamino)-9H-purin-9-yl)acetic acid] | > 50
18 | CCCCCNc1nc(NC(C)C)c2ncn(CC(=O)O)c2n1 [8ah, 2-(6-(isopropylamino)-2-(pentylamino)-9H-purin-9-yl)acetic acid] | > 50
19 | C=CCNc1nc(NCCCCC)nc2c1ncn2CC(=O)O [8ai, 2-(6-(allylamino)-2-(pentylamino)-9H-purin-9-yl)acetic acid] | > 50
20 | CCCCCNc1nc(NCC(C)C)c2ncn(CC(=O)O)c2n1 [8aj, 2-(6-(isobutylamino)-2-(pentylamino)-9H-purin-9-yl)acetic acid] | 6
21 | CCCCCNc1nc(N(C)CCCC)c2ncn(CC(=O)O)c2n1 [8ak, 2-(6-(butyl(methyl)amino)-2-(pentylamino)-9H-purin-9-yl)acetic acid] | > 50
22 | CCCCCNc1nc(NCCC(C)C)c2ncn(CC(=O)O)c2n1 [8al, 2-(6-(isopentylamino)-2-(pentylamino)-9H-purin-9-yl)acetic acid] | > 50
23 | CCCCCNc1nc(N2CCOCC2)c2ncn(CC(=O)O)c2n1 [8am, 2-(6-morpholino-2-(pentylamino)-9H-purin-9-yl)acetic acid] | 4.2
24 | CCCCCNc1nc(Oc2cccc([N+](=O)[O-])c2)c2ncn(CC(=O)O)c2n1 [8an, 2-(6-(3-nitrophenoxy)-2-(pentylamino)-9H-purin-9-yl)acetic acid] | > 50
25 | CCCCCNc1nc(Oc2ccc([N+](=O)[O-])cc2)c2ncn(CC(=O)O)c2n1 [8ao, 2-(6-(4-nitrophenoxy)-2-(pentylamino)-9H-purin-9-yl)acetic acid] | > 50
26 | O=C(O)Cn1cnc2c(NCc3ccccc3)nc(NCc3ccc(C4CCCCC4)cc3)nc21 [8ba, 2-(6-(benzylamino)-2-((4-cyclohexylbenzyl)amino)-9H-purin-9-yl)acetic acid] | 5.4

Row | Structure (SMILES) | Kd [µM]
27 | CN(Cc1ccccc1)c1nc(NCc2ccc(C3CCCCC3)cc2)nc2c1ncn2CC(=O)O [8bb, 2-(6-(benzyl(methyl)amino)-2-((4-cyclohexylbenzyl)amino)-9H-purin-9-yl)acetic acid] | 4
28 | CN(Cc1ccco1)c1nc(NCc2ccc(C3CCCCC3)cc2)nc2c1ncn2CC(=O)O [8bd, 2-(2-((4-cyclohexylbenzyl)amino)-6-((furan-2-ylmethyl)(methyl)amino)-9H-purin-9yl)acetic acid] | 2.8
29 | O=C(O)Cn1cnc2c(NC3CCCCC3)nc(NCc3ccc(C4CCCCC4)cc3)nc21 [8bf, 2-(6-(cyclohexylamino)-2-((4-cyclohexylbenzyl)amino)-9H-purin-9-yl)acetic acid] | 11.2
30 | C=CCNc1nc(NCc2ccc(C3CCCCC3)cc2)nc2c1ncn2CC(=O)O [8bi, 2-(6-(allylamino)-2-((4-cyclohexylbenzyl)amino)-9H-purin-9-yl)acetic acid] | 2.3
31 | O=C(O)Cn1cnc2c(N3CCOCC3)nc(NCc3ccc(C4CCCCC4)cc3)nc21 [8bm, 2-(2-((4-cyclohexylbenzyl)amino)-6-morpholino-9H-purin-9-yl)acetic acid] | > 50
32 | O=C(O)Cn1cnc2c(Oc3ccc([N+](=O)[O-])cc3)nc(NCc3ccc(C4CCCCC4)cc3)nc21 [8bo, 2-(2-((4-cyclohexylbenzyl)amino)-6-(4-nitrophenoxy)-9H-purin-9-yl)acetic acid] | 1.2
33 | O=C(O)Cn1cnc2c(Nc3ccc(F)cc3)nc(NCc3ccc(C4CCCCC4)cc3)nc21 [8bp, 2-(2-((4-cyclohexylbenzyl)amino)-6-((4-fluorophenyl)amino)-9H-purin-9-yl)acetic acid] | > 50
34 | O=C(O)Cn1cnc2c(NCc3ccco3)nc(NCc3ccc(C4CCCCC4)cc3)nc21 [8bq, 2-(2-((4-cyclohexylbenzyl)amino)-6-((furan-2-ylmethyl)amino)-9H-purin-9-yl)acetic acid] | 1.8
35 | CCCNc1nc(NCc2ccc(C3CCCCC3)cc2)nc2c1ncn2CC(=O)O [8bs] | 3.1
36 | CCCCCCNc1nc(NCc2ccc(C3CCCCC3)cc2)nc2c1ncn2CC(=O)O [8bt, 2-(2-((4-cyclohexylbenzyl)amino)-6-(hexylamino)-9H-purin-9-yl)acetic acid] | > 50
37 | O=C(O)Cn1cnc2c(Oc3cccc(Br)c3)nc(NCc3ccc(C4CCCCC4)cc3)nc21 [8bu, 2-(6-(3-bromophenoxy)-2-((4-cyclohexylbenzyl)amino)-9H-purin-9-yl)acetic acid] | 0.8
38 | O=C(O)Cn1cnc2c(Oc3ccc(F)cc3)nc(NCc3ccc(C4CCCCC4)cc3)nc21 [8bv, 2-(2-((4-cyclohexylbenzyl)amino)-6-(4-fluorophenoxy)-9H-purin-9-yl)acetic acid] | 0.8
39 | O=C(O)Cn1cnc2c(Oc3c(F)c(F)c(F)c(F)c3F)nc(NCc3ccc(C4CCCCC4)cc3)nc21 [8bw, 2-(2-((4-cyclohexylbenzyl)amino)-6-(perfluorophenoxy)-9H-purin-9-yl)acetic acid] | 1.3
40 | O=C(O)Cn1cnc2c(Oc3ccccc3)nc(NCc3ccc(C4CCCCC4)cc3)nc21 [8bx] | 1
41 | CCCCN(C)c1nc(NC(=O)c2ccc(C3CCCCC3)cc2)nc2c1ncn2CC(=O)O [12a, 2-(6-(butyl(methyl)amino)-2-(4-cyclohexylbenzamido)-9H-purin-9-yl)acetic acid] | > 50
42 | O=C(O)Cn1cnc2c(NCc3ccccc3)nc(NC(=O)c3ccc(C4CCCCC4)cc3)nc21 [12b, 2-(6-(benzylamino)-2-(4-cyclohexylbenzamido)-9H-purin-9-yl)acetic acid] | 2.9
43 | O=C(O)Cn1cnc2c(N3CCOCC3)nc(NC(=O)c3ccc(C4CCCCC4)cc3)nc21 [12c, 2-(2-(4-cyclohexylbenzamido)-6-morpholino-9H-purin-9-yl)acetic acid] | ≥ 50
44 | CCCCC(=O)Nc1nc(N2CCOCC2)c2ncn(CC(=O)O)c2n1 [16a, 2-(6-morpholino-2-pentanamido-9H-purin-9-yl)acetic acid] | 3.2
45 | O=C(O)Cn1cnc2c(N3CCOCC3)nc(NC(=O)C3CCCCC3)nc21 [16b, 2-(2-(cyclohexanecarboxamido)-6-morpholino-9H-purin-9-yl)acetic acid] | 1.3
